How the values were obtained:
[1] = system: peripheral blood erythrocytes from Swiss mice; assay: Alkaline comet assay in vivo; parameters: species or system Mus musculus; details: for damage index (comet assay) compared to negative control / damage frequency (comet assay) compared to negative control: intraperitoneally
Procedure: Forty female Mus musculus mice (Swiss strain) were used. The animals were divided into 8 groups, with 5 animals each: G1—negative control (NC) treated with the vehicle solution intraperitoneally; G2—positive control (PC) treated intraperitoneally with cyclophosphamide at a dose of 30 mg/kg; groups exposed to the BV3 derivative—Group BV3—I intraperitoneally at doses of 2000 mg/kg; Group BV3—II 1000 mg/kg; Group BV3—III 500 mg/kg; and groups exposed to BV5—Group BV5—I, received BV5 intraperitoneally at doses of 2000 mg/kg; Group BV5—II 1000 mg/kg; and Group BV5—III 500 mg/kg. For the comet assay, approximately 0.5 mL of blood from each animal was collected via the tail vein 6–8 h after administration of the compounds. For the micronucleus test, 1 mL of blood from each animal was collected by cardiac puncture 48 h after administration of the compounds. For that collection, the mice were anesthetized with ketamine (100 mg/kg) and xylazine (10 mg/kg), intraperitoneally. Immediately after blood collection, the animals were euthanized with high doses of anesthetics (ketamine 300 mg/kg and xylazine 30 mg/kg). The in vivo experiments were approved by the Ethics Committee on the Use of Animals (CEUA) of the Federal University of Pernambuco, under process no. 004/2023.
The female mice (n = 40) were equally distributed into 8 experimental groups; the groups were composed of 5 female animals each. After administering the solutions and compounds to the groups, blood samples were taken 6 and 8 h after treatment. Subsequently, 15 µL of blood was used, which was homogenized with 100 µL of low-melting-point agarose (LM agarose) and subsequently deposited on slides previously prepared with standard agarose. The slides were covered with coverslips and left at 4 °C for 10 min. After refrigeration, the coverslips were removed and the slides were placed in a lysis solution (2.5 M NaCl, 100 mM EDTA, 10 mM tris, 1% Triton x-100, 10% DMSO, pH 13) for 48 h. After lysis, the slides were left in an alkaline electrophoresis buffer ([…] and […] EDTA disodium salt, pH 13) for 20 min to unroll the DNA and then subjected to electrophoresis in a horizontal vat for 20 min, with a current of ± 300 mA and potential difference of 32 V. After electrophoresis, the slides were neutralized for 15 min in 0.4 M tris-HCl buffer, pH 7.5, and fixed for 5 min in absolute ethanol. The slides were stained with 100 µL of a 1 µg/mL acridine orange solution. All test steps were carried out under red light. To analyze damage levels, 100 nucleoids from each animal were evaluated for damage level. For this, each nucleoid was classified into one of five classes according to the proportion of DNA in the comet’s tail and head: 0 (no damage); 1 (little apparent damage); 2 (medium damage); 3 (medium damage with longer tail); and 4 (maximum damage). The Damage Index (DI) was thus calculated according to the formula DI=0×nºclass comets 0+1×nºclass comets 1+2×nºclass comets 2+3×nºclass comets 3+4×(nºclass comets 4)
Thus, the values obtained could range from 0 (no damage) to 400 (maximum damage). Additionally, the Frequency of damage (FD) was calculated based on the percentage of all nucleoids with some damage (class 1 to class 4) relative to the total number of nucleoids counted per animal: FD=nºofdamaged comets−nºclass comets 0×100/(nºtotal)

[2] = parameters: method as in PMID 35934135; details: cited from earlier work; for toxicity category, Globally Harmonized System of Classification and Labelling of Chemicals: acute toxicity; for deaths in acute toxicity experiments: dose of 2000 mg/kg

Structure (SMILES) | frequency of damage (comet assay) ([1]; any of the tested doses (500, 1000, 2000 mg/kg)) | damage index (comet assay) compared to negative control ([1]; 2000 mg/kg) | damage index (comet assay) compared to negative control ([1]; 500 and 1000 mg/kg) | toxicity category, Globally Harmonized System of Classification and Labelling of Chemicals [2] | deaths in acute toxicity experiments [2] | damage frequency (comet assay) compared to negative control ([1]; 2000 mg/kg) | damage frequency (comet assay) compared to negative control ([1]; 500 and 1000 mg/kg)
Cc1ccc(NC(=S)N/N=C2\C(=O)C3=C(OC(C)(C)CC3)c3ccccc32)cc1 [BV5, 2-(2,2-dimethyl-5-oxo-3,4-dihydro-2H-benzo[h]chromen-6(5H)-ylidene)-N-(p-tolyl)-thiocarbohydrazide] | no difference | increase | no differences | Category 5 | no deaths | – | –
CC1(C)CCC2=C(O1)c1ccccc1/C(=N/NC(=S)Nc1ccc([N+](=O)[O-])cc1)C2=O [BV3, 2-(2,2-dimethyl-5-oxo-3,4-dihydro-2H-benzo[h]chromen-6(5H)-ylidene)-N-(4nitrophen-yl)thio-carbohydrazide] | – | decrease | no significant differences | Category 5 | no deaths | decrease | no significant differences
